Test results as given in ChEMBL document CHEMBL2163280 (J Med Chem, 2012).
Activity calls are given as the source filed them. The rule behind the calls is not given here.

Target: Acetylcholine receptor; alpha1/beta1/delta/gamma (Homo sapiens) (UniProt P02708+P07510+P11230+Q07001)
Experiment: Agonist activity at alpha1betagammadelta nACHR in human TE671/RD cells by 86Rb+ efflux assay
Type: functional, cell-based

In the case of OCc1cc(OC[C@@H]2CCN2)no1, the Activity was “inactive”.

For O=C(Nc1ccccc1)OCc1cc(OC[C@@H]2CCN2)on1, the Activity was “inactive”.

c1ccc(OCc2cc(OC[C@@H]3CCN3)on2)cc1 was tested, and the Activity was “inactive”.

In the case of Cc1cc(OC[C@@H]2CCCN2)on1, the Activity was “inactive”.

In the case of FCc1cc(OC[C@@H]2CCN2)on1, the Activity was “inactive”.

OCc1cc(OC[C@@H]2CCN2)on1 was tested, and the Activity was “inactive”.
